Reference: patent publication US11479802B2, “Assays for screening activity of modulators of members of the hydroxy steroid (17-beta) dehydrogenase (HSD17B) family” (Regeneron Pharmaceuticals, Inc., priority 2017, dated 2022)

Biological target: T1, human HSD17B13 (Homo sapiens, UniProt Q7Z5P4)
T1 sequence (Q7Z5P4 20-300): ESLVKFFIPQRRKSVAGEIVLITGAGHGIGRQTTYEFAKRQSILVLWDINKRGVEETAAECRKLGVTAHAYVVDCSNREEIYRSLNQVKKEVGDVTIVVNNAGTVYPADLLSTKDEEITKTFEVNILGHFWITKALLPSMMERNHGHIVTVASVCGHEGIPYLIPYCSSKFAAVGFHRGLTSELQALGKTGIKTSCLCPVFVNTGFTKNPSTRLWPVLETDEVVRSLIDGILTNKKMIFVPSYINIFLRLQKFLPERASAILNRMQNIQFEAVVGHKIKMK
Assay: Substrate screening of steroid and bioactive lipid libraries against purified recombinant HSD17B13 (NADH-linked luciferase assay)
Format: biochemical
Conditions: Bioactive Lipid Library; for HSD17B13 Enzymatic Activity Relative Light Units: 5 μM bioactive lipid (Estradiol Control 50 μM), 500 μM NAD+, 100 ng enzyme, 3 hours at 23° C.; for HSD17B13 Enzymatic Activity Percent Estradiol Control: 5 μM bioactive lipid, normalized to 50 μM estradiol after subtraction of 5% DMSO
Summary of the method: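 Substrates (bioactive lipids 5 μM, steroids 50 μM; 5% DMSO) tested with 500 μM NAD+ and 100 ng recombinant human HSD17B13 in 0.2 M Tris-HCl pH 7.5, 3 h, 23° C. Luminescent NADH detection followed 1 h later; RLU normalized to estradiol (50 μM, 100%) and DMSO (0%) controls.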

SMILES | HSD17B13 Enzymatic Activity Relative Light Units | HSD17B13 Enzymatic Activity Percent Estradiol Control
CCCCC[C@@H](/C=C/C=C\CCCCCCCC(=O)O)OO [13(S)-HpODE] | 183040 RLU | −7.72%
CCCCC[C@@H](/C=C/C=C\C/C=C\CCCCC(=O)O)OO [13(S)-HpOTrE(γ)] | 268840 RLU | −1.34%
CC/C=C\C[C@@H](/C=C/C=C\CCCCCCCC(=O)O)OO [13(S)-HpOTrE] | 35320 RLU | −18.70%
O=C(O)CCCC=C1CC2CC(O)C(C#CC(O)C3CCCCC3)C2C1 (centres unmarked) [13,14-dehydro-15-cyclohexyl Carbaprostacyclin] | 356360 RLU | 5.79%
C[C@@H](O)CCC[C@H](O)CC[C@H]1[C@H](O)CC(=O)[C@@H]1CCCCCCC(=O)O [13,14-dihydro-19(R)-hydroxy Prostaglandin E1] | 337040 RLU | 4.26%
CC/C=C\C[C@H]1C(=O)C=C[C@@H]1CCCCCCCC(=O)O [13-epi-12-oxo Phytodienoic Acid] | 320640 RLU | 2.97%
CCCCC[C@H]1O[C@H]1C/C=C\C/C=C\C/C=C\CCCC(=O)NCCO [14(15)-EET Ethanolamide] | 428760 RLU | 7.83%
C[C@@H](O)CCC[C@@H](O)/C=C/[C@H]1[C@H](O)CC(=O)[C@@H]1CCCCCCC(=O)O [15(R),19(R)-hydroxy Prostaglandin E1] | 333200 RLU | 3.96%
C[C@@H](O)CCC[C@@H](O)/C=C/[C@H]1[C@H](O)CC(=O)[C@@H]1C/C=C\CCCC(=O)O [15(R),19(R)-hydroxy Prostaglandin E2] | 346000 RLU | 4.97%
C[C@@H](O)CCC[C@@H](O)/C=C/[C@@H]1[C@@H](C/C=C\CCCC(=O)O)[C@@H](O)C[C@H]1O [15(R),19(R)-hydroxy Prostaglandin F2α] | 382720 RLU | 7.88%
CCCCC[C@@H](O)/C=C/C=C\CCCCCCCCCC(=O)O [15(R)-HEDE] | 1862960 RLU | 117.20%
CCCCC[C@@H](O)/C=C/C=C\C/C=C\C/C=C\CCCC(=O)O [15(R)-HETE] | 701120 RLU | 61.00%
CC(C)OC(=O)CCC/C=C\C[C@@H]1[C@@H](/C=C/[C@H](O)COc2cccc(C(F)(F)F)c2)[C@H](O)C[C@@H]1O [15(S)-Fluprostenol isopropyl ester] | 410960 RLU | 10.11%
CCCCC[C@H](O)/C=C/C=C\CCCCCCCCCC(=O)O [15(S)-HEDE] | 1060680 RLU | 57.54%
CC/C=C\C[C@H](O)/C=C/C=C\C/C=C\C/C=C\CCCC(=O)O [15(S)-HEPE] | 505240 RLU | 16.24%
CCCCC[C@H](O)/C=C/C=C\C/C=C\C/C=C\CCCC(=O)NCCO [15(S)-HETE Ethanolamide] | 535680 RLU | 19.97%
